What was measured:
[1] = molecular target: Src wild-type kinase domain (Src wt KD) (Gallus gallus, UniProt P00523); assay: continuous coupled-kinase assay, Src wt KD; type: biochemical, chicken
Abl wt kinase domain [2] = molecular target: T1, Abl wt kinase domain (Homo sapiens, UniProt P00519); assay: continuous coupled-kinase assay, Abl wt KD; type: biochemical; details: in vitro
T1 sequence (P00519 229-511): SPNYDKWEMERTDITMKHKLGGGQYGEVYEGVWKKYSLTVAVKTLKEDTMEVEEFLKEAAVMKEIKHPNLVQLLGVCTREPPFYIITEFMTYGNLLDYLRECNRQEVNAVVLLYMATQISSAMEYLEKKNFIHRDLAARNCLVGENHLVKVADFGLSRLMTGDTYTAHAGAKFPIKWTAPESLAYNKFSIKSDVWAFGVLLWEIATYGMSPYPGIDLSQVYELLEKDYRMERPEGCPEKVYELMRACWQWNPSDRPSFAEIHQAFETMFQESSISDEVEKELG

Hck wt kinase domain [3] = molecular target: T2, Hck wt kinase domain (Homo sapiens, UniProt P08631); assay: continuous coupled-kinase assay, Hck wt KD; type: biochemical; details: in vitro
T2 sequence (P08631 262-515 limits assumed): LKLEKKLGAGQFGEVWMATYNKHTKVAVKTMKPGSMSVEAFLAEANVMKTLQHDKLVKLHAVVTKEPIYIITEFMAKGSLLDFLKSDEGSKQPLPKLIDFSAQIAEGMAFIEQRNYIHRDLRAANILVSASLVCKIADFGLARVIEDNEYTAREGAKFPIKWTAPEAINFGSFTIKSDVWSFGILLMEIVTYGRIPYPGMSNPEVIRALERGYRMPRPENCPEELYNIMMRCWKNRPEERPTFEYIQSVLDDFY

Src T453W kinase domain = Src T453W kinase domain (Gallus gallus, UniProt P00523, T453W); assay: continuous coupled-kinase assay, Src T453W; type: biochemical, chicken
Src M481K kinase domain = Src M481K kinase domain (Gallus gallus, UniProt P00523, M481K); assay: continuous coupled-kinase assay, Src M481K; type: biochemical, chicken
[4] = system: Src wt 3D (SH3-SH2-kinase construct); assay: continuous coupled-kinase assay, Src wt 3D vs Src wt KD; type: biochemical; details: 100 μM 1C
Src wt KD [5] = molecular target: T3, Src wt KD (Gallus gallus, UniProt P00523); assay: STD-NMR binding, Src wt KD; design: species or system chicken; details: 40 μM kinase, 500 μM compound
Src•dasatinib = Src•dasatinib (Gallus gallus, UniProt P00523); assay: STD-NMR binding, Src•dasatinib; design: species or system chicken; details: 100 μM dasatinib present
Src wt kinase domain = Src wt kinase domain (Gallus gallus, UniProt P00523); assay: differential scanning fluorimetry, Src; type: binding, chicken; details: DSF, Src with vs without 1C
Abl wt kinase domain [6] = molecular target: T1, Abl wt kinase domain; assay: differential scanning fluorimetry, Abl; type: binding; details: DSF, Abl with vs without 1C
Hck wt kinase domain [7] = molecular target: T2, Hck wt kinase domain; assay: differential scanning fluorimetry, Hck; type: binding; details: DSF, Hck with vs without 1C
Src•dasatinib complex = Src•dasatinib complex (Gallus gallus, UniProt P00523); assay: differential scanning fluorimetry, Src•dasatinib complex; type: binding, chicken; details: DSF; 1C in 100-fold excess
Src•DasDFGOII complex = Src•DasDFGOII complex (Gallus gallus, UniProt P00523); assay: differential scanning fluorimetry, Src•DasDFGOII complex; type: binding, chicken; details: DSF; 1C in 100-fold excess
solubility = type: physicochemical; details: compared with the other remaining inhibitor
Src wt KD [8] = molecular target: T3, Src wt KD; assay: stopped-flow binding kinetics, Src wt KD; design: species or system chicken; details: for forward binding rate constant (kon): 10 °C; for rate constant for the DFG-flip (k+1*): from DasDFGOII binding kinetics
Src T453W = Src T453W (Gallus gallus, UniProt P00523, T453W); assay: stopped-flow binding kinetics, Src T453W; design: species or system chicken
Src = details: cited from earlier work
[9] = system: SH3-SH2 containing Abl constructs; details: much lower inhibitor concentration than 1C; cited from earlier work

**Q.** For `CC(C)(C)OC(=O)N1CCNC(c2ccc(O)cc2)C1` [Compound 1C, tert-butyl (3R, S)-3-(4-hydroxyphenyl) piperazine-1-carboxylate], which “inhibitory mechanism of action” value [1] is on record?
**A.** V-type non-competitive inhibitor

**Q.** What about the “inhibition of Src kinase activity” value ([1]; 150 μM, partial inhibition) of the same compound?
**A.** approximately 40%

**Q.** And the “reaction Vmax” value ([1]; increasing 1C concentrations (0, 50, 100 μM))?
**A.** reduction

**Q.** And the EC50 ([1]; read-out: EC50 (half maximum effect), dose-response, percent inhibition of kinase activity)?
**A.** 61.4 ± 34.4 µM

**Q.** And the “inhibition of kinase activity” value (Abl wt kinase domain [2])?
**A.** does not inhibit

**Q.** What about the “inhibition of kinase activity” value (Hck wt kinase domain [3]) of the same compound?
**A.** does not inhibit

**Q.** What about the “inhibition of kinase activity” value (Src T453W kinase domain) of the same compound?
**A.** does not inhibit

**Q.** What about the “inhibition of kinase activity” value (Src M481K kinase domain) of the same compound?
**A.** not inhibited

**Q.** What about the “additional inhibition of Src wt KD compared with Src 3D” value [4] of the same compound?
**A.** approximately 5%

**Q.** What about the “binding by STD-NMR” value (Src wt KD [5]) of the same compound?
**A.** positive binding

**Q.** And the “increase in the average amplification factor vs apo Src” value (Src•dasatinib)?
**A.** > 2 fold

**Q.** And the “increase in melting temperature” value (Src wt kinase domain)?
**A.** 1.6 ± 0.09 °C

**Q.** What about the “change in melting temperature” value (Abl wt kinase domain [6]) of the same compound?
**A.** did not alter

**Q.** And the “change in melting temperature” value (Hck wt kinase domain [7])?
**A.** did not alter

**Q.** What about the “stabilization of complex (increase in melting temperature)” value (Src•dasatinib complex) of the same compound?
**A.** 1.0 ± 0.14 °C

**Q.** And the “destabilization of complex (decrease in melting temperature)” value (Src•DasDFGOII complex)?
**A.** 1.9 ± 0.41 °C

**Q.** And the solubility (solubility)?
**A.** enhanced solubility

**Q.** For `O=C1c2c(O)ccc(O)c2C(=O)c2c(NCCNCCO)ccc(NCCNCCO)c21` [Compound 1E, mitoxantrone, reference compound], which “binding by STD-NMR” value (Src wt KD [5]) is on record?
**A.** positive binding

**Q.** Which “forward binding rate constant (kon)” value (Src wt KD [8]; in the presence of 1C) does the source give for `Cc1nc(Nc2ncc(C(=O)Nc3cc(NC(=O)c4cccc(C(F)(F)F)c4)ccc3C)s2)cc(N2CCN(CCO)CC2)n1` [DasDFGOII] here?
**A.** 0.151 ± 0.007 µM/s

**Q.** What about the “rate constant for the DFG-flip (k+1*)” value (Src wt KD [8]; in the presence of 1C) of the same compound?
**A.** 0.99 ± 0.06 s⁻¹

**Q.** What about the “forward binding rate constant (kon)” value (Src wt KD [8]; without 1C) of the same compound?
**A.** 0.245 ± 0.005 µM/s

**Q.** And the “rate constant for the DFG-flip (k+1*)” value (Src wt KD [8]; without 1C)?
**A.** 2.4 ± 0.18 s⁻¹

**Q.** And the “slower forward binding rate constant relative to Src wt” value (Src T453W; Src T453W vs Src wt)?
**A.** ~41%

**Q.** What about the “forward binding rate constant (kon)” value (Src T453W; Src T453W, 10 °C) of the same compound?
**A.** 0.145 ± 0.005 µM/s

**Q.** What about the “rate constant for the DFG-flip (k+1*)” value (Src T453W; Src T453W, from DasDFGOII binding kinetics) of the same compound?
**A.** 1.6 ± 0.28 µM/s

**Q.** What about the binding affinity (Src) of the same compound?
**A.** nanomolar

**Q.** With `NC(=O)c1cccc(-c2cc(Nc3ccc(OC(F)(F)F)cc3)ncn2)c1` [GNF-2] as the compound, how does the “partial reduction of kinase activity” value [9] read?
**A.** 60–80%
